Data: ChEMBL document CHEMBL5108002, “Design, synthesis, and biological evaluation of novel 7-substituted 10,11-methylenedioxy-camptothecin derivatives against drug-resistant small-cell lung cancer in vitro and in vivo” (Eur J Med Chem, 2022)
Calls of active or inactive are those of the source. The rule behind the calls is not given here.

Assays:
[1] = system: H69AR; assay: Induction of apoptosis in human NCI-H69AR cells assessed as inhibition of XIAP protein expression at 0.1 to 100 nM incubated for 24 hrs by Western blot analysis; type: functional, cell-based; conditions: dose 0.1-100 nM
[2] = system: NCI-H446; assay: Induction of apoptosis in human NCI-H446 cells assessed as increase in cleaved-PARP protein expression at 0.1 to 100 nM measured after 24 to 48 hrs by Western blot analysis; type: functional, cell-based; conditions: dose 0.1-100 nM, time 24-48 hrs
[3] = system: NCI-H446; assay: Antitumor activity against human NCI-H446 cells xenografted in BALB/c nude mouse assessed as reduction in large tumor growth at 3 mg/kg, IG administered for 31 days by electronic caliper method; type: functional, organism-based; conditions: time 31.0 day
[4] = system: NCI-H446; assay: Induction of apoptosis in human NCI-H446 cells assessed as late apoptotic cells at 0.1 nM incubated for 24 hrs by AnnexinV-FITC/PI staining based flow cytometry analysis (reference value: 0.37 %); type: functional
[5] = system: H69AR; assay: Induction of apoptosis in human NCI-H69AR cells assessed as increase in cleaved-caspase 9 protein expression at 0.1 to 100 nM measured after 24 hrs by Western blot analysis; type: functional, cell-based; conditions: dose 0.1-100 nM
[6] = system: NCI-H446; assay: Antiproliferative activity against etoposide/cisplatin combination-resistant human NCI-H446 cells assessed as inhibition of cell growth incubated for 72 hrs by SRB assay; type: functional, cell-based; conditions: NCI-H446, 72 h
[7] = system: NCI-H446; assay: Induction of apoptosis in human NCI-H446 cells assessed as reduction in Mcl-1 mRNA level at 0.1 to 100 nM incubated for 24 hrs by RT-PCR analysis; type: functional, cell-based; conditions: dose 0.1-100 nM
[8] = Resistance index, ratio of IC50 for antiproliferative activity against etoposide/cisplatin combination-resistant human NCI-H446 cells to IC50 for antiproliferative activity against human NCI-H446 cells; type: functional
[9] = system: U-87 MG; assay: Antiproliferative activity against human U87 cells assessed as inhibition of cell growth incubated for 72 hrs by SRB assay; type: functional, cell-based, U-87MG ATCC
[10] = system: NCI-H69; assay: Induction of apoptosis in human NCI-H69 cells assessed as inhibition of XIAP protein expression at 0.1 to 100 nM incubated for 24 hrs by Western blot analysis; type: functional, cell-based; conditions: dose 0.1-100 nM
[11] = system: H69AR; assay: Induction of apoptosis in human NCI-H69AR cells assessed as early apoptotic cells at 10 nM incubated for 24 hrs by AnnexinV-FITC/PI staining based flow cytometry analysis (reference value: 0.35 %); type: functional
[12] = system: Mus musculus; assay: Downregulation of Mcl-1 protein expression in tumor of BALB/c mouse xenografted with human NCI-H446 cells at 0.75 mg/kg, IG administered intragastrically once a week for 28 days by western blot analysis; type: functional, organism-based; conditions: time 28.0 day

With CC[C@@]1(O)C(=O)OCc2c1cc1n(c2=O)Cc2c-1nc1cc3c(cc1c2-c1ccoc1)OCO3 the inhibition [1] was “Active”, the Activity [2] was “Active” and the Activity [3] was “Active”. For the same compound, the Activity [4] was 3.73%, the Activity [5] was “Active” and the IC50 [6] was 0.49 nM. For the same compound, the Activity [7] was “Active”, the “Ratio IC50” value [8] was 0.63 and the IC50 [9] was 19.1 nM. The inhibition [10] was “Active”, the Activity [11] was 0.57% and the Activity [12] was “Active”.
